Measured values: publication PMC5522996, “Big conductance calcium‐activated potassium channel openers control spasticity without sedation” (British Journal of Pharmacology, 2017)

What was measured:
[1] = tested on: spastic ABH mice with EAE; assay: Spasticity: resistance to hindlimb flexion against a strain gauge; settings: 1 mg·kg^−1 i.v., racemate
[2] = tested on: CB1 receptor‐deficient ABH mice; assay: Spasticity in CB1 receptor‐deficient mice; type: in vivo, mouse; settings: 5 mg·kg^−1 i.v., 30 min (Figure 5A)
[3] = tested on: ABH mice; assay: Open‐field activity monitoring (hypomotility); type: in vivo, mouse; settings: 1 mg·kg^−1 i.v., 30 min after administration
Description: Motor activity was assessed using 27.9 × 27.9 cm open field activity monitor chambers and computer software (Med Associates Inc, St. Albans, VT, USA.). This was typically performed in a darkened room. Recordings were initiated once the mouse entered the chamber and continued for 5 min. These chambers, allowing four simultaneous recordings of individual mice and were fitted with infrared beams that could detect movement in the X, Y planes. The total distance travelled (cm) was recorded. Results are expressed as mean ± SEM. These were analysed by Student's paired t‐test or a one‐way ANOVA with Bonferroni post hoc test, using SigmaStat V3/Sigmaplot V9 or V11 software (Systat Ltd Hounslow, UK. Al‐Izki et al., 2012).

[4] = tested on: ABH mice; assay: Temperature testing (hypothermia); type: in vivo, mouse
Description: These recordings were assessed 20 min following administration of compounds. Results are expressed as mean ± SEM, and were analysed by Student's t‐test or a one‐way ANOVA with Bonferroni post hoc test using Sigma/StatV3/Sigmpaplot V9 or V11 software (Pryce et al., 2014).

[5] = tested on: mice; assay: Visible sedation, behaviour and tolerability in mice; settings: 1 mg·kg^−1 i.v.
[6] = tested on: mouse vas deferens; assay: Electrically‐evoked contraction of the mouse vas deferens; type: cell-based
Description: Vasa deferentia were obtained from outbred MF‐1 mice and mounted vertically in a 4 mL organ bath at an initial tension of 0.5 g. The baths contained Mg^2+‐free Krebs solution (NaCl 118.2 mM, KCl 4.75 mM, KH2PO4 1.19 mM, NaHCO3 25.0 mM, glucose 11.0 mM and CaCl2·6H2O 2.54 mM), which was kept at 35–36°C and bubbled with 95% O2 and 5% CO2. […] Contractions were monitored by a computer using a data recording and analysis system as described previously (Ross et al., 2001). After placement in an organ bath, each tissue was subjected to a stimulation‐free period of 10 min and then stimulated for 10 min. Tissues were then subjected to alternate periods of stimulation (5 min) and rest (10 min) until consistent twitch amplitudes were obtained. This equilibration procedure was followed by a stimulation‐free period of 25 min. Tissues were then stimulated for 5 min after which the first agonist addition was made and stimulation continued until the end of the experiment.

CC(CO)NC(=O)c1cccc(C=CCCCC(=O)N(C)C)c1 (centres unmarked) [VSN16, 3‐(6‐(dimethylamino)‐6‐oxohex‐1‐enyl)‐N‐(1‐hydroxypropan‐2‐yl)benzamide]
Inhibition of spasticity [1]: significantly inhibit spasticity | Inhibition of spasticity [2]: significantly inhibit spasticity | Hypomotility in open field [3]: did not induce | Hypothermia ([4]; 1 mg·kg^−1 i.v., 20 min after administration): did not induce | Cannabimimetic effects after injection directly into the CNS ([4]; intracerebral (i.c.) route): failed to induce cannabimimetic effects | Visible signs of sedation [5]: failed to induce visible signs of sedation | EC50 ([6]; Mus musculus, read-out: EC50, inhibition of electrically‐evoked contraction): ~10 nM | Antagonism of the action by SR141716A ([6]; pre‐incubation of 31.6 nM SR141617A): antagonized
